From US20210283099A1, “CDC7 KINASE INHIBITORS AND USES THEREOF” (SLOAN-KETTERING INSTITUTE FOR CANCER RESEARCH, priority 2010, published 2021)

Tested on: HeLa cells
Assay: S phase checkpoint western blot analysis
Assay type: cell-based, human
Conditions: SDS-PAGE and western blot
Method: FIG. 15. […] HeLa cells were incubated in the presence of granaticin A or carrier control (DMSO) for the indicated times and whole cell extracts were subjected to SDS-PAGE and western blot analysis. Asyn=asynchronously growing HeLa cells. HU=HeLa cells exposed to hydroxyurea for the indicated time. HU was used as a control for DNA damaging agent that is known to […] the DNA damage checkpoint response. Again, we observed that Mcm2 mobility is shifted in the cells treated with granaticin A. MCM2 mobility is not affected by HU. Activation of the DNA damage/replication checkpoint correlates with ATM/ATR dependent phosphorylation of Chk1 at Ser345.

`NC(=O)NO` [HU, hydroxyurea, reference compound] was tested, and the Mcm2 mobility was “not affected”.
